Results reported in patent US10858355B2, “Inhibitors of phosphatidylinositol 3-kinase gamma” (AstraZeneca AB, priority 2016, dated 2020).

target: recombinant human PI3Kγ (aa144-1102)-6His (Homo sapiens (Human), UniProt P48736); experiment: Test A: Enzymatic Activity Assay for Rec Human PI3Kγ (ADP-Glo); format: biochemical; conditions: 20 μM ATP, 80 μM DiC8-PIP2, 1.2 nM PI3Kγ, 15 min pre-incubation, 60 min reaction
Protocol: Pharmacological Activity Test A: Enzymatic Activity Assay for Rec Human PI3Kγ
The activity of recombinant human PI3Kγ (aa144-1102)-6His was determined by measuring the ADP level after phosphorylation of DiC8-PIP2 using a commercially available ADP-Glo™ kit from Promega. The assay was carried out in white low volume 384 well plates in a final volume of 14 μl at rt. The assay conditions contained the following: 50 mM Tris buffer pH 7.4, 2.1 mM DTT, 3 mM MgCl2, 0.05% CHAPS, 20 μM ATP, 80 μM DiC8-PIP2 and 1.2 nM PI3Kγ. […] Routinely, inhibitors were pre-incubated with 3 μl of PI3Kγ for 15 min prior to the addition of […] substrate mixture for a further 60 min enzyme reaction. The phosphorylation was stopped with the addition of 3 μl ADP-Glo™ reagent (stop solution) followed by a 40 min incubation. Prior to detection 6 μl of ADP-Glo™ Kinase Detection Reagent was added and the plates were read in a micro plate reader using a Luminescence filter.

recombinant human PI3Kγ (aa144-1102)-6His, sequence (P48736 144-1102): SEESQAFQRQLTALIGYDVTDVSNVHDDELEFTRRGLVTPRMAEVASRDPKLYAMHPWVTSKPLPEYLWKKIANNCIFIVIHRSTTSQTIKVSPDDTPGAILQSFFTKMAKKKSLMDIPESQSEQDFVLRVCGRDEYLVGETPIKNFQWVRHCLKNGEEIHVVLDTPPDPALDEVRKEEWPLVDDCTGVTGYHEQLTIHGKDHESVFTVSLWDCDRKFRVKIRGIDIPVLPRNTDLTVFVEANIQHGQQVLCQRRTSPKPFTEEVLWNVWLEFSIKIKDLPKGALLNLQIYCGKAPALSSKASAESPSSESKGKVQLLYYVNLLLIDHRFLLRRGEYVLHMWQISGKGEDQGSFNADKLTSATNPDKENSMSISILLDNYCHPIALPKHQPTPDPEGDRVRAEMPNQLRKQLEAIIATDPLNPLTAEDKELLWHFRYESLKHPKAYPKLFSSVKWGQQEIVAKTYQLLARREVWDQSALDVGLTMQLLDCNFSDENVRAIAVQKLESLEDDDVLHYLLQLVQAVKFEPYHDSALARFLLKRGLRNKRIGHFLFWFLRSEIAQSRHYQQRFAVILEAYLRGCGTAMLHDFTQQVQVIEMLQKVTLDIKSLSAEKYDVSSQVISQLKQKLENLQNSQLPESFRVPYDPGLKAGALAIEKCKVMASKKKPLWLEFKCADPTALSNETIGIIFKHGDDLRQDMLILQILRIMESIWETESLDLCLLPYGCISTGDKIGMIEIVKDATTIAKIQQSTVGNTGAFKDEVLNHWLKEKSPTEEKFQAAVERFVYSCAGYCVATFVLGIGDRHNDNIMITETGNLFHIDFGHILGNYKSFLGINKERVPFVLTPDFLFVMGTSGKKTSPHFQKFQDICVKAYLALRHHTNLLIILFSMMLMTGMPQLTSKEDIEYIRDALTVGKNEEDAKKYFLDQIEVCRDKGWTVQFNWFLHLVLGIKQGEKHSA

Row | SMILES | PI3Kγ activity, pIC50
1 | CNS(=O)(=O)c1cc(-c2cnc3c(N)nccn23)cc2c1C(=O)N([C@@H](C)C1CC1)C2 [Example 31, 6-(8-Aminoimidazo[1,2-a]pyrazin-3-yl)-2-[(1S)-1-cyclopropylethyl]-N-methyl-3-oxo-2,3-dihydro-1H-isoindole-4-sulfonamide] | 8.7
2 | CCS(=O)(=O)Nc1cc(-c2sc(NC(C)=O)nc2C)cc2c1C(=O)N([C@@H](C)C1CC1)C2 [Example 25, N-(5-{2-[(1S)-1-Cyclopropylethyl]-7-[(ethylsulfonyl)amino]-1-oxo-2,3-dihydro-1H-isoindol-5-yl}-4-methyl-1,3-thiazol-2-yl)acetamide] | 9.1
3 | CC(=O)Nc1nc(C)c(-c2cc3c(c(S(=O)(=O)Nc4cccc(C#N)c4)c2)C(=O)N([C@@H](C)C2CC2)C3)s1 [Example 36, N-(5-{7-[(3-Cyanophenyl)sulfamoyl]-2-[(1S)-1-cyclopropylethyl]-1-oxo-2,3-dihydro-1H-isoindol-5-yl}-4-methyl-1,3-thiazol-2-yl)acetamide] | 9.3
4 | CC(=O)Nc1nc(C)c(-c2cc3c(c(NC(C)=O)c2)C(=O)N([C@@H](C)C2CC2)C3)s1 [Example 5, N-(5-{7-(Acetylamino)-2-[(1S)-1-cyclopropylethyl]-1-oxo-2,3-dihydro-1H-isoindol-5-yl}-4-methyl-1,3-thiazol-2-yl)acetamide] | 9.0
5 | CNS(=O)(=O)c1cc(-c2sc(NC(C)=O)nc2C)cc2c1C(=O)N([C@@H](C)C(C)(C)C)C2 [Example 33, N-(5-{2-[(2S)-3,3-Dimethylbutan-2-yl]-7-(methylsulfamoyl)-1-oxo-2,3-dihydro-1H-isoindol-5-yl}-4-methyl-1,3-thiazol-2-yl)acetamide] | 8.8
6 | CC(=O)Nc1nc(C)c(-c2cc3c(c(S(=O)(=O)NCC(F)(F)F)c2)C(=O)N([C@@H](C)C2CC2)C3)s1 [Example 20, N-(5-{2-[(1S)-1-Cyclopropylethyl]-1-oxo-7-[(2,2,2-trifluoroethyl)sulfamoyl]-2,3-dihydro-1H-isoindol-5-yl}-4-methyl-1,3-thiazol-2-yl)acetamide] | 9.2
7 | CC(=O)Nc1nc(C)c(-c2cc3c(c(S(=O)(=O)NC4CC(F)(F)C4)c2)C(=O)N([C@@H](C)C2CC2)C3)s1 [Example 17, N-(5-{2-[(1S)-1-Cyclopropylethyl]-7-[(3,3-difluorocyclobutyl)sulfamoyl]-1-oxo-2,3-dihydro-1H-isoindol-5-yl}-4-methyl-1,3-thiazol-2-yl)acetamide] | 8.9
8 | CC(=O)Nc1nc(C)c(-c2cc3c(c(NS(=O)(=O)CC4CC4)c2)C(=O)N([C@@H](C)C2CC2)C3)s1 [Example 28, N-[5-(2-[(1S)-1-Cyclopropylethyl]-7-{[(cyclopropylmethyl)sulfonyl]amino}-1-oxo-2,3-dihydro-1H-isoindol-5-yl)-4-methyl-1,3-thiazol-2-yl]acetamide] | 9.1
9 | CNS(=O)(=O)c1cc(-c2sc(NC(C)=O)nc2C)cc2c1C(=O)N(C(C)C)C2 [Example 11, N-{4-Methyl-5-[7-(methylsulfamoyl)-1-oxo-2-(propan-2-yl)-2,3-dihydro-1H-isoindol-5-yl]-1,3-thiazol-2-yl}acetamide] | 8.8
10 | CC(=O)Nc1nc(C)c(-c2cc3c(c(S(=O)(=O)Nc4cccc(C#N)c4)c2)C(=O)N(C(C)C)C3)s1 [Example 37, N-(5-{7-[(3-Cyanophenyl)sulfamoyl]-1-oxo-2-(propan-2-yl)-2,3-dihydro-1H-isoindol-5-yl}-4-methyl-1,3-thiazol-2-yl)acetamide] | 9.0
11 | CCCS(=O)(=O)Nc1cc(-c2sc(NC(C)=O)nc2C)cc2c1C(=O)N([C@@H](C)C1CC1)C2 [Example 24, N-(5-{2-[(1S)-1-Cyclopropylethyl]-1-oxo-7-[(propylsulfonyl)amino]-2,3-dihydro-1H-isoindol-5-yl}-4-methyl-1,3-thiazol-2-yl)acetamide] | 9.0
12 | CC(=O)Nc1nc(C)c(-c2cc3c(c(S(=O)(=O)NCC4CC4)c2)C(=O)N([C@@H](C)C2CC2)C3)s1 [Example 13, N-(5-{2-[(1S)-1-Cyclopropylethyl]-7-[(cyclopropylmethyl)sulfamoyl]-1-oxo-2,3-dihydro-1H-isoindol-5-yl}-4-methyl-1,3-thiazol-2-yl)acetamide] | 9.0
13 | CNS(=O)(=O)c1cc(-c2sc(NC(C)=O)nc2C)cc2c1C(=O)N(C(C)(C)C)C2 [Example 34, N-{5-[2-tert-Butyl-7-(methylsulfamoyl)-1-oxo-2,3-dihydro-1H-isoindol-5-yl]-4-methyl-1,3-thiazol-2-yl}acetamide] | 8.8
14 | CNS(=O)(=O)c1cc(-c2sc(NC(C)=O)nc2C)cc2c1C(=O)N([C@@H](C)C(F)(F)F)C2 [Example 35, N-(4-Methyl-5-{7-(methylsulfamoyl)-1-oxo-2-[(2S)-1,1,1-trifluoropropan-2-yl]-2,3-dihydro-1H-isoindol-5-yl}-1,3-thiazol-2-yl)acetamide] | 9.0
15 | CC(=O)Nc1nc(C)c(-c2cc3c(c(S(=O)(=O)NC4COC4)c2)C(=O)N([C@@H](C)C2CC2)C3)s1 [Example 16, N-(5-{2-[(1S)-1-Cyclopropylethyl]-7-(oxetan-3-ylsulfamoyl)-1-oxo-2,3-dihydro-1H-isoindol-5-yl}-4-methyl-1,3-thiazol-2-yl)acetamide] | 9.2
16 | CC(=O)Nc1nc(C)c(-c2cc3c(c(NS(=O)(=O)C(C)(C)C)c2)C(=O)N([C@@H](C)C2CC2)C3)s1 [Example 26, N-(5-{7-[(tert-Butylsulfonyl)amino]-2-[(1S)-1-cyclopropylethyl]-1-oxo-2,3-dihydro-1H-isoindol-5-yl}-4-methyl-1,3-thiazol-2-yl)acetamide] | 9.0
17 | CC(=O)Nc1nc(C)c(-c2cc3c(c(S(N)(=O)=O)c2)C(=O)N(C(C)C)C3)s1 [Example 21, N-{4-Methyl-5-[1-oxo-2-(propan-2-yl)-7-sulfamoyl-2,3-dihydro-1H-isoindol-5-yl]-1,3-thiazol-2-yl}acetamide] | 8.9
18 | CC(=O)Nc1nc(C)c(-c2cc3c(c(NS(=O)(=O)C4CC4)c2)C(=O)N([C@@H](C)C2CC2)C3)s1 [Example 23, N-(5-{2-[(1S)-1-Cyclopropylethyl]-7-[(cyclopropylsulfonyl)amino]-1-oxo-2,3-dihydro-1H-isoindol-5-yl}-4-methyl-1,3-thiazol-2-yl)acetamide] | 9.2
19 | CNS(=O)(=O)c1cc(-c2sc(NC(C)=O)nc2C)cc2c1C(=O)N(C(C)(C)C1CC1)C2 [Example 32, N-{5-[2-(2-Cyclopropylpropan-2-yl)-7-(methylsulfamoyl)-1-oxo-2,3-dihydro-1H-isoindol-5-yl]-4-methyl-1,3-thiazol-2-yl}acetamide] | 9.0

same assay, conditions: 20 μM ATP, 80 μM DiC8-PIP2, 1.2 nM PI3Kγ, 15 min pre-incubation, 60 min reaction; read-out: PI3Kγ activity, pIC50 (converted)

Row | SMILES | IC50
20 | CNS(=O)(=O)c1cc(-c2sc(NC(C)=O)nc2Cl)cc2c1C(=O)N([C@@H](C)C1CC1)C2 [Example 30, N-(4-Chloro-5-{2-[(1S)-1-cyclopropylethyl]-7-(methylsulfamoyl)-1-oxo-2,3-dihydro-1H-isoindol-5-yl}-1,3-thiazol-2-yl)acetamide] | 1.26 nM
21 | CC(=O)Nc1ncc(-c2cc3c(c(NS(C)(=O)=O)c2)C(=O)N([C@@H](C)C2CC2)C3)s1 [Example 22, N-(5-{2-[(1S)-1-Cyclopropylethyl]-7-[(methylsulfonyl)amino]-1-oxo-2,3-dihydro-1H-isoindol-5-yl}-1,3-thiazol-2-yl)acetamide] | 0.794 nM
